Results as given in ChEMBL document CHEMBL1949599, “Three novel cyclic hexapeptides from Streptomyces alboflavus 313 and their antibacterial activity” (2012).
Values after ≈ are worked out from the molar mass of the structure shown.

What was measured:
Format in all cases: functional
[1] = test system: Bacillus subtilis; test: Antibacterial activity against Bacillus subtilis CGMCC 1.88 after 24 hrs by micro-broth dilution method; conditions: CGMCC 1.88, 24 h
[2] = test system: Pseudomonas aeruginosa; test: Antibacterial activity against Pseudomonas aeruginosa CGMCC 1.2031 after 24 hrs by micro-broth dilution method; conditions: CGMCC 1.2031, 24 h
[3] = test system: Staphylococcus aureus; test: Antibacterial activity against Staphylococcus aureus CGMCC 1.89 after 24 hrs by micro-broth dilution method; conditions: CGMCC 1.89, 24 h
[4] = test system: Staphylococcus aureus; test: Antibacterial activity against methicillin-resistant Staphylococcus aureus after 24 hrs by micro-broth dilution method
[5] = test system: Bacillus cereus; test: Antibacterial activity against Bacillus cereus CGMCC 1.1846 after 24 hrs by micro-broth dilution method; conditions: CGMCC 1.1846, 24 h
[6] = test system: Escherichia coli; test: Antibacterial activity against Escherichia coli CGMCC 1.1574 after 24 hrs by micro-broth dilution method; conditions: CGMCC 1.1574, 24 h

Compound: CC(C)[C@@H]1NC(=O)[C@@H]2C[C@@]3(O)c4ccc(Cl)cc4N[C@H]3N2C(=O)[C@H]2CCCNN2C(=O)[C@@H](C)N(C)C(=O)[C@H]2CCCNN2C(=O)[C@@H]2CCCNN2C1=O
- MIC [1]: 12.5 µg/mL (≈ 16.5 µM)
- MIC [2]: > 100 µg/mL
- MIC [3]: 6.25 µg/mL (≈ 8.25 µM)
- MIC [4]: 6.25 µg/mL (≈ 8.25 µM)
- MIC [5]: 12.5 µg/mL (≈ 16.5 µM)
- MIC [6]: > 100 µg/mL

Compound: CC(C)[C@H]1NC(=O)[C@@H]2C[C@@]3(O)c4ccc(Cl)cc4N[C@H]3N2C(=O)[C@H]2CCCNN2C(=O)[C@@H](C)NC(=O)[C@H]2CCCNN2C(=O)[C@@H]2CCCNN2C1=O
- MIC [1]: > 100 µg/mL
- MIC [2]: > 100 µg/mL
- MIC [3]: > 100 µg/mL
- MIC [4]: > 100 µg/mL
- MIC [5]: > 100 µg/mL
- MIC [6]: > 100 µg/mL

Compound: COC1=CC2C(=O)N(C)[C@@H](C)C(=O)N3NCCC[C@@H]3C(=O)N3[C@@H](C[C@@]4(O)c5ccc(Cl)cc5N[C@@H]34)C(=O)N[C@H](C(C)C)C(=O)N3NCCC[C@@H]3C(=O)N2N=C1 (stereo not given in full)
- MIC [1]: 3.13 µg/mL (≈ 4 µM)
- MIC [2]: > 100 µg/mL
- MIC [3]: 1.56 µg/mL (≈ 1.99 µM)
- MIC [4]: 1.56 µg/mL (≈ 1.99 µM)
- MIC [5]: 3.13 µg/mL (≈ 4 µM)
- MIC [6]: > 100 µg/mL

Compound: COC1C=NN2C(=O)[C@H]3CCCNN3C(=O)[C@@H](C(C)C)NC(=O)[C@@H]3C[C@@]4(O)c5ccc(Cl)cc5N[C@H]4N3C(=O)[C@H]3CCCNN3C(=O)[C@H](C)N(C)C(=O)C2C1 (stereo not given in full)
- MIC [1]: 25 µg/mL (≈ 31.8 µM)
- MIC [2]: > 100 µg/mL
- MIC [3]: 25 µg/mL (≈ 31.8 µM)
- MIC [4]: 25 µg/mL (≈ 31.8 µM)
- MIC [5]: 25 µg/mL (≈ 31.8 µM)
- MIC [6]: > 100 µg/mL

Compound: CC1(C)S[C@@H]2[C@H](NC(=O)[C@H](N)c3ccccc3)C(=O)N2[C@H]1C(=O)[O-].[Na+] [AMPICILLIN SODIUM]
- MIC [1]: 1.56 µg/mL
- MIC [2]: > 100 µg/mL
- MIC [3]: 6.25 µg/mL
- MIC [4]: > 100 µg/mL
- MIC [5]: 6.25 µg/mL
- MIC [6]: 3.13 µg/mL
